“And” between values parts separate entries of the source, which are not always exact repeats. Equal values may be shown once. Read-outs that look alike come from different tables or passages of the source.
Key:
[1] = tested on: CD1 mice; assay: Gastrointestinal transit (GIT), carmine marker; format: in vivo, mouse; conditions: data not shown
Excerpt: The mouse isolated vas deferens is a nerve-smooth muscle preparation that serves as a highly sensitive and quantitative functional in vitro bioassay for cannabinoid CB1R agonists. The effect of CB1 agonists is related to the action on naturally expressed prejunctional neuronal CB1Rs to inhibit release of the contractile neurotransmitters, noradrenaline and ATP, which is provoked by electrical stimulation. It has been shown that CB1 antagonist derivatives are able to block or reduce the inhibition of the electrically evoked contraction amplitude of the vas deferens induced by CB1 agonists, with parallel dextral shifts in CB1R agonist log concentration-response curves in electrically stimulated tissues. According to previous studies concerning cannabinoid agents, a gastrointestinal transit test was adopted to confirm CB1 antagonism. […] Moreover, the capability of CB1 antagonist compounds both to block the constipation effect induced by cannabinoid agonists and to themselves increase themselves gastrointestinal motility has been reported.
The same procedure previously reported by Murineddu et al. was adopted to evaluate the effect of the compounds on GIT. CD1 mice weighing 30–35 g were used. Carmine (Sigma Chemical Co, St. Louis, MO, USA) was suspended (6% wt/v) in distilled water containing 0.5% methylcellulose and administered by gavage at the dose of 0.3 mL/mouse. Briefly, after 20 min from carmine administration, mice were sacrificed by cervical dislocation and the stomach and small intestine were removed and the omentum was separated, avoiding stretching. The length of the intestine was measured starting from the pyloric sphincter to the ileocecal junction. The distance travelled by the head of the marker was measured and expressed as a percent of the total length of the small intestine. Using this procedure, the marker was consistently found at approximately 50% of the small intestine, 20 min after its administration to naive mice.
20 min later, mice were killed by dislocation cervical and intestines were removed. […] The length of the intestine from the pyloric sphincter to the ileocecal junction and the distance travelled by the carmine front were both measured and recorded. Groups of n = 10 mice were used in each experiment.
Statistical analyses were performed by one-way ANOVA followed by Newman-Keuls post-hoc comparison.

[2] = target: T1, CB2 receptor (Mus musculus, UniProt P47936); assay: CB2 radioligand binding, [3H]-CP-55,940 competition in mouse spleen homogenate; conditions: [3H]-CP-55,940, mouse spleen homogenate; mean ± standard error, five independent experiments in triplicate; read-out: KiCB2
T1 construct: from tissue; host or cells: mouse (CD1) spleen, membrane homogenate
T1 sequence (P47936 whole entry): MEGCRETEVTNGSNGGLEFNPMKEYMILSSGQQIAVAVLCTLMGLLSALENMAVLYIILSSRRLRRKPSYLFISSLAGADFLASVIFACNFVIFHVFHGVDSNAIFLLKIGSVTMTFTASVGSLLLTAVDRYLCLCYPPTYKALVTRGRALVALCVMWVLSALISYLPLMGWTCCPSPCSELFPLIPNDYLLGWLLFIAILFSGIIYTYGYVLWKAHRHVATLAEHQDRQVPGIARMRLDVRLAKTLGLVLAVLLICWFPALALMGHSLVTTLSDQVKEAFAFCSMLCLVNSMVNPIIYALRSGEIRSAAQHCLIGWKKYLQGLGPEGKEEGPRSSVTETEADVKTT
Protocol: Affinities at CB1R and CB2R for compounds 1c–j were assessed by competition of [^3H]-CP-55,940 in mouse brain (minus cerebellum) and spleen homogenates, respectively. Radioligand binding experimental procedures previously reported by us were adopted.
(§1) Male CD1 mice weighing 30–35 g were killed by cervical dislocation and the brain (minus cerebellum) and spleen were rapidly removed and frozen. After thawing, tissues were homogenated in 20 vol. (wt/v) of ice-cold TME buffer (50 mM Tris-HCl, 1 mM EDTA and 3.0 mM MgCl2, pH 7.4). The homogenates were centrifuged at 1,086 ×g for 10 min at 4 °C, and the resulting supernatants were centrifuged at 45,000 ×g for 30 min.
[^3H]-CP-55,940 binding was performed using the method previously described by Ruiu et al.. Briefly, the membranes (30–80 µg of protein) were incubated with 0.5–1 nM of [^3H]-CP-55,940 for 1 h at 30 °C in a final volume of 0.5 mL of TME buffer containing 5 mg/mL of fatty acid-free bovine serum albumin. Non-specific binding was estimated in the presence of 1 µM of CP-55,940. All binding studies were performed in disposable glass tubes pre-treated with Sigma-Cote (Sigma Chemical Co., Ltd., Poole, UK), in order to reduce non-specific binding. The reaction was terminated by rapid filtration through Whatman GF/C filters presoaked in 0.5% polyethyleneimine (PEI) using a Brandell 36-sample harvester (Gaithersburg, MD, USA). Filters were washed five times with 4 mL aliquots of ice-cold Tris HCl buffer (pH 7.4) containing 1 mg/mL BSA. The filter bound radioactivity was measured in a liquid scintillation counter (Tricarb 2900, Packard, Meridien, […], USA) with 4 mL of scintillation fluid (Ultima Gold MV, Packard).
(§2) Protein determination was performed by means of a Bradford protein assay using BSA as a standard according to the protocol of the supplier (Bio-Rad, Milan, Italy).
(§3) All experiments were performed in triplicate and results were confirmed in at least five independent experiments. Data from radioligand inhibition experiments were analysed by nonlinear regression analysis of a Sigmoid Curve using Graph Pad Prism program. IC50 values were derived from the calculated curves and converted to Ki values as previously described.

[3] = target: T2, CB1 receptor (Mus musculus, UniProt P47746); assay: CB1 radioligand binding, [3H]-CP-55,940 competition in mouse brain (minus cerebellum) homogenate; conditions: for Ki: mean ± standard error, five independent experiments in triplicate; for CB1-affinity decrease relative to 1a: compared with 1a (Ki 10.25 nM); for Selectivity KiCB2/KiCB1: ratio of KiCB2 to KiCB1
T2 construct: from tissue; host or cells: mouse (CD1) brain minus cerebellum, membrane homogenate
T2 sequence (P47746 whole entry): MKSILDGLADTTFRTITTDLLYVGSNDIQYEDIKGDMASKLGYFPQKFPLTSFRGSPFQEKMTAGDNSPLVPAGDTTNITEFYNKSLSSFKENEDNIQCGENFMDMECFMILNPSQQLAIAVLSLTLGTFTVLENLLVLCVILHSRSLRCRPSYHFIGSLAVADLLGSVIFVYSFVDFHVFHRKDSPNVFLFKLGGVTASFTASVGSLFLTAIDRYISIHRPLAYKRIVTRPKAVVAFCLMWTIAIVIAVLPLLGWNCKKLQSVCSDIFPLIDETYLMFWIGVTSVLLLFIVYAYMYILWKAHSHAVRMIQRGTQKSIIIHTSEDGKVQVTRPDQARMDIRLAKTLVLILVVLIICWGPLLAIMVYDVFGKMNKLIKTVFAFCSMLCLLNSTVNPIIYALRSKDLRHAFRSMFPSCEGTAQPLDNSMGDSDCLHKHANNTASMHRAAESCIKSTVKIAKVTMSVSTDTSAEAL
Protocol: Radioligand binding experimental procedures previously reported by us were adopted.
as §1
All binding studies were performed in disposable glass tubes pre-treated with Sigma-Cote (Sigma Chemical Co., Ltd., Poole, UK), in order to reduce non-specific binding. The reaction was terminated by rapid filtration through Whatman GF/C filters presoaked in 0.5% polyethyleneimine (PEI) using a Brandell 36-sample harvester (Gaithersburg, MD, USA). Filters were washed five times with 4 mL aliquots of ice-cold Tris HCl buffer (pH 7.4) containing 1 mg/mL BSA. The filter bound radioactivity was measured in a liquid scintillation counter (Tricarb 2900, Packard, Meridien, […], USA) with 4 mL of scintillation fluid (Ultima Gold MV, Packard).
as §2, §3

[4] = target: T3, CB1Rs of mouse vas deferens (Mus musculus, UniProt P47746); assay: Isolated organ assay: electrically evoked contractions of mouse vas deferens; conditions: cumulative concentration-response curve
T3 construct: naturally expressed prejunctional neuronal CB1Rs; from tissue; host or cells: isolated vas deferens of male albino CD1 mice
T3 sequence (P47746 whole entry): as above
Protocol: Vas deferens was obtained from male albino CD1 mice weighing 30 to 40 g. Tissue was mounted in a 10 mL organ bath at an initial tension of 0.5 g using a previously described method [16]. The bath contained Krebs-Henseleit solution (118.2 mM NaCl, 4.75 mM KCl, 1.19 mM KH2PO4, 25.0 mM NaHCO3, 11.0 mM glucose, and 2.54 mM CaCl2), which was kept at 37 °C and bubbled with 95% O2 and 5% CO2. Isometric contractions were evoked by stimulation with 0.5 sec trains of three pulses of 110% maximal voltage (train frequency, 0.1 Hz; pulse duration, 0.5 msec) through platinum electrodes attached to the upper end of each bath and a stainless-steel electrode attached to the lower end. Stimuli were generated using a Grass S88K stimulator and then amplified (multiplexing pulse booster 316S; Ugo Basile, Comerio, Italy) and divided to yield separate outputs to four organ baths. Contractions were monitored using a computer equipped with a data recording and analysis system (PowerLab 400) linked via preamplifiers (QuadBridge) to an F10 transducer (Biological Instruments, Besozzo, Italy). Each tissue was subject to several periods of stimulation. […] The stimulator was then switched off for 15 min, after which the tissues were subjected to further periods of stimulation each lasting 5 min and separated by a stimulation-free period. The compounds to be assayed were added once the contractile responses to electrical stimulation were reproducible. Preparations were exposed to cumulative increasing concentrations of the compounds to obtain concentration-response curves in the case of CB1 agonist (and partial agonist) compounds. […] Inhibition of the electrically evoked twitch response was expressed in percentage terms and was calculated by comparing the amplitude of the twitch response after each addition of the agonist compound (alone or in the presence of a potential CB1 antagonist) with the amplitude detected in absence of the compounds to be assayed (basal value). The pA2 values for competitive antagonism were calculated by Schild regression analysis [37]. Data were plotted as log antagonist concentration versus log [(antagonist concentration/agonist concentration)-1].

[5] = tested on: P-ERK 1/2 expression in mouse neuroblastoma N1E-115 cells (CB1Rs); assay: P-ERK 1/2 expression in N1E-115 cells (Western blot); format: cell-based; conditions: 10 min exposure
Protocol: Agonist or antagonist activity of the new derivatives towards CB1Rs were assayed through in vitro testing based on the determination of phosphorylated ERK 1/2 (P-ERK 1/2) expression in a mouse neuroblastoma N1E-115 cell line. As previously reported, this cell line expresses CB1Rs but not CB2Rs; moreover, it has been shown that the exposure of N1E-115 cells to the cannabinoid agonists arachidonyl-2-chloroethylamide (ACEA) and WIN 55-212,2 induces a rapid phosphorylation and activation of the ERK 1/2. The addition of CB1 antagonists as SR141716A abolishes the response induced by the cannabinoid agonists.
N1E-115 cells were grown at 37 °C in humidified 5% CO2 in Dulbecco’s Modified Eagle’s Medium (high glucose supplemented with 10% fetal bovine serum (FBS), 1 μg/mL penicillin-streptomycin, 2 mM L-glutamine, 2.5 μg/mL amphotericin B and 50 μg/mL gentamicin). […] Tested and reference compounds were dissolved in Dulbecco’s phosphate buffered saline (D-PBS) with 1% DMSO and treatments were performed in a volume of 10 μL/mL of cell suspension.
P-ERK 1/2 expression was determined through Western blot analysis according to the previously reported procedure. One-way ANOVA was performed as a statistical analysis using the Graph Pad Prism program (San Diego, CA, USA).
The same procedure was adopted to determine CB1 specific antagonism for compounds which had no effect on P-ERK 1/2 expression themselves. In these last cases, WIN55,212-2 at 25 nM as a reference cannabinoid agonist agent and the new CB1 antagonists at 150–200 nM were employed.

[6] = tested on: C57Bl6/J mice; assay: Acute food intake in fasted mice; format: in vivo, mouse
Protocol: To further evaluate the potential application of these CB1 antagonists in the control of food intake and in obesity treatment, compound 1b was preliminarily tested in comparison with SR141716A in an acute in vivo assay using C57Bl6/J mice. The evaluation was carried out according to the animal model previously reported by Di Marzo [19].
It is well known that CB1Rs mediate the hyperphagic effect of cannabinoids. […] To test the potential anti-obesity effect of the new CB1 antagonist 1b we performed food intake experiments according to the acute animal model described by Di Marzo [19]. For a comparison we also reported the results concerning the assumed lead compound of this new series, derivative 1a.
A widely described method was used for the screening of the new CB1 antagonists in the food intake animal model. C57Bl6/J mice weighing 20–25 g were housed individually on a reverse light-dark cycle in a room with temperature and humidity control. The mice were fasted for 18 h before testing. Vehicle or CB1 antagonists were administered by an intraperitoneal injection and 15 min later a known amount of food was presented. Food pellets were weighed after each hour for three hours. Rimonabant was used as internal positive control in order to evaluate the efficacy of each compound. All animal experiments were performed according to the UE (CEE N° 86/609) guidelines for the care and use of experimental animals.
Two-way ANOVA with Bonferroni post-testing was performed using GraphPad Prism version 5.00 for Windows (GraphPad Software, San Diego CA, USA).

[7] = [3H]-CP 55,940, mouse brain (minus cerebellum) homogenate, read-out: KiCB1

Structure (SMILES)	Ki [2]	melting point	Ki [3, 7]	CB1-affinity decrease relative to 1a [3]	also measured
O=C(NN1CCCC1)c1nn(-c2ccc(Cl)cc2Cl)c2c1CCOc1cc(Cl)ccc1-2 [Compound 1c, 8-Chloro-1-(2,4-dichlorophenyl)-N-pyrrolidin-1-yl-4,5-dihydrobenzo-1H-6-oxa-cyclohepta[1,2-c]pyrazole-3-carbohydrazide]	4500 ± 500 nM	175 °C	< 60 nM and 55.1 nM	5.4 fold	Effect on gastrointestinal transit compared with that of 1b [1]: Analogue results; Selectivity KiCB2/KiCB1 [3]: > 57
O=C(NN1CCCCCC1)c1nn(-c2ccc(Cl)cc2Cl)c2c1CCOc1cc(Cl)ccc1-2 [Compound 1d, 8-Chloro-1-(2,4-dichlorophenyl)-N-homopiperidin-1-yl-4,5-dihydrobenzo-1H-6-oxa-cyclohepta[1,2-c]pyrazole-3-carbohydrazide]	2000 ± 50 nM	137 to 138 °C	< 60 nM and 35 nM	3.5 fold	Effect on gastrointestinal transit compared with that of 1b [1]: Analogue results; Selectivity KiCB2/KiCB1 [3]: > 57
CC1(C)C2CCC(CNC(=O)c3nn(-c4ccc(Cl)cc4Cl)c4c3CCOc3cc(Cl)ccc3-4)C1C2 (stereo not shown) [Compound 1e, 8-Chloro-1-(2,4-dichlorophenyl)-N-(6,6-dimethyl-bicyclo[3.1.1]hept-2-yl-methyl)-4,5-dihydrobenzo-1H-6-oxa-cyclohepta[1,2-c]pyrazole-3-carboxamide]	–	142 to 143 °C	–	–	Maximum inhibition of the amplitude of electrically-evoked contractions [4]: around 60%; Concentration up to which a dose response effect on P-ERK 1/2 expression was highlighted ([5]; N1E-115 cells): ≤ 75 nM; Effect on P-ERK 1/2 expression (agonist activity towards CB1) ([5]; compound alone, 1b–d at concentrations up to 1 μM): CB1 agonist activity
O=C(Nc1ccccc1)c1nn(-c2ccc(Cl)cc2Cl)c2c1CCOc1cc(Cl)ccc1-2 [Compound 1f, 8-Chloro-1-(2,4-dichlorophenyl)-N-phenyl-4,5-dihydrobenzo-1H-6-oxa-cyclohepta[1,2-c]pyrazole-3-carboxamide]	4120 ± 620 nM	130 °C	233 ± 33 nM	23 fold	–
O=C(Nc1ccc(Cl)cc1)c1nn(-c2ccc(Cl)cc2Cl)c2c1CCOc1cc(Cl)ccc1-2 [Compound 1g, 8-Chloro-1-(2,4-dichlorophenyl)-N-(p-chlorophenyl)-4,5-dihydrobenzo-1H-6-oxa-cyclohepta[1,2-c]pyrazole-3-carboxamide]	> 5000 nM	239 °C	318 ± 36 nM	–	–
Cc1ccc(NC(=O)c2nn(-c3ccc(Cl)cc3Cl)c3c2CCOc2cc(Cl)ccc2-3)cc1 [Compound 1h, 8-Chloro-1-(2,4-dichlorophenyl)-N-tolyl-4,5-dihydrobenzo-1H-6-oxa-cyclohepta[1,2-c] pyrazole-3-carboxamide]	> 5000 nM	181 °C	–	–	Ki ([3]; KiCB1, [3H]-CP 55,940, mouse brain (minus cerebellum) homogenate): 429 ± 49 nM
COc1ccc(NC(=O)c2nn(-c3ccc(Cl)cc3Cl)c3c2CCOc2cc(Cl)ccc2-3)cc1 [Compound 1i, 8-Chloro-1-(2,4-dichlorophenyl)-N-(p-methoxyphenyl)-4,5-dihydrobenzo-1H-6-oxa-cyclohepta[1,2-c]pyrazole-3-carboxamide]	> 5000 nM	214 °C	330 ± 45 nM	–	–
O=C(Nc1ccc(C(F)(F)F)cc1)c1nn(-c2ccc(Cl)cc2Cl)c2c1CCOc1cc(Cl)ccc1-2 [Compound 1j]	> 5000 nM	249 to 250 °C	459 ± 57 nM	–	–
Cc1c(C(=O)NN2CCCCC2)nn(-c2ccc(Cl)cc2Cl)c1-c1ccc(Cl)cc1 [rimonabant, N-piperidinyl-5-(4-chlorophenyl)-1-(2,4-dichlorophenyl)-4-methyl-1H-pyrazole-3-carboxamide, reference compound]	–	–	–	–	Food intake effect over time ([6]; 10 mg/kg i.p., at 2 h and 3 h): fades away; Observable side effects / behavioural effects ([6]; 20 mg/kg (highest assayed dosage)): marked behavioural effects

Reference: article PMC6539809, “Development of Oxygen-Bridged Pyrazole-Based Structures as Cannabinoid Receptor 1 Ligands” (Molecules, 2019)
